Series [1] can be described thus: In vivo study of Factor IX mmRNA IM, serum Factor IX. The settings on record: mice IM, 2×100 ug/mouse in formulation buffer, 13 hours. On the procedure:
Human Factor IX mmRNA (Gen1; fully modified 5-methylcytosine and pseudouridine) formulated in formulation buffer was delivered to mice via intramuscular injection.
The mice were bled at 13 hours after the intramuscular injection to determine the concentration of human the polypeptide in serum in pg/mL.

The conditions of series [2]: for Serum Concentration 8-12 hours after administration: Factor IX; for Factor IX Protein Expression, Conc: mice IV, serum 8 hrs.
The next series relates to Factor IX. The series can be described thus: Factor IX mRNA transfected in serum-free media, peptide detection by MALDI. In kind it is cell-based, human. The settings on record: 8 peptides detected, 7 unique to Factor IX. The source says:
The cell culture supernatant was collected and subjected to trypsin digestion before undergoing 2-dimensional HPLC separation of the peptides Matrix-assisted laser desorption/ionization was used to detect the peptides. 8 peptides were detected and 7 of the detected peptides are unique to Factor IX.

Series [3] in a line: Intramuscular and subcutaneous delivery of human EPO mRNA in buffer, serum human EPO. In kind it is in vivo, C57/BL6 mice. The settings on record: mice, 100 μg, 13 hours. The method, then: (§1) Mice were intramuscularly or subcutaneously injected with 50 μl of the modified human EPO mRNA (h-EPO), modified luciferase mRNA (Luc) or the formulation buffer (F.Buffer) as described in the dosing chart Table 58. 13 hours post injection blood was collected and serum was analyzed to determine the amount human EPO for each mouse or rat.

Series [4] can be described thus: Duration of activity after intramuscular delivery, serum human EPO. In kind it is in vivo, Sprague-Dawley rats. The settings on record: rats, 100 μg, 24, 48 and 72 hour. The method, then: The rats were bled 2, 6, 12, 24, 48 and 72 hours after the intramuscular injection to determine the concentration of human EPO in serum at a given time.
Series [5] in a line: Intramuscular delivery of human EPO mRNA in buffer, serum human EPO. In kind it is in vivo, Sprague-Dawley rats. The settings on record: rats, 100 μg, 13 hours. The method, then:
as §1

Another series deals with IFN-alpha. Nature of the series: Cytokine study PBMC, IFN-alpha production ELISA. In kind it is cell-based. The settings on record: human PBMC, Lipofectamine 2000. The method, then: The plates were then incubated at 37 C.
Each condition was done in duplicate
Shown in Tables 69 and 70 are the average from 2 separate PBMC donors of the G-CSF and IFN-alpha production over time as measured by specific ELISA.
In general terms: ELISA stands for enzyme-linked immunosorbent assay.

Series [6] is described as follows: Human G-CSF modified RNA lipoplex comparison I.M., S.C., G-CSF ELISA 13 hours. In kind it is in vivo, C57/BL6 mice. The settings on record: mice I.M. or S.C., 100 μg, saline or lipoplex. On the procedure:
A formulation containing 100 μg of either modified human G-CSF mRNA lipoplexed with 30% by volume of RNAIMAX™ with a 5-methylcytosine (5mc) and a pseudouridine (ψ) modification (G-CSF-Gen1-Lipoplex), modified human G-CSF mRNA with a 5mc and ψ modification in saline (G-CSF-Gen1-Saline), modified human G-CSF mRNA with a N1-5-methylcytosine (N1-5mc) and a ψ modification lipoplexed with 30% by volume of RNAIMAX™ (G-CSF-Gen2-Lipoplex), modified human G-CSF mRNA with a N1-5mc and ψ modification in saline (G-CSF-Gen2-Saline), modified luciferase with a 5mc and ψ modification lipoplexed with 30% by volume of RNAIMAX™ (Luc-Lipoplex), or modified luciferase mRNA with a 5mc and ψ modification in saline (Luc-Saline) was delivered intramuscularly (I.M.) or subcutaneously (S.C.) and a control group for each method of administration was giving a dose of 80 uL of the formulation buffer (F. Buffer) to C57/BL6 mice. 13 hours post injection serum and tissue from the site of injection were collected from each mouse and analyzed by G-CSF ELISA to compare human G-CSF protein levels. The results of the human G-CSF protein in mouse serum from the intramuscular administration and the subcutaneous administration results are shown in Table 55.

The subject of series [7] is peripheral blood mononuclear cells (PBMC). The series can be described thus: In vitro PBMC study, percent modification: IFN-alpha and TNF-alpha by ELISA, PC ratio. In kind it is cell-based, human. The method, then: The supernatant was harvested and run by ELISA 22 hours after transfection to determine the protein expression.
Series [8] shares this test system. The series can be described thus: Modified RNA transfected in PBMC: G-CSF by ELISA at 6 and 18 hours. The settings on record: Donor 2, 18 hours. In kind it is cell-based, human. On the procedure:
(§2) 500 ng of G-CSF mRNA modified with 5-methylcytosine (5mC) and pseudouridine (pseudoU) or unmodified G-CSF mRNA was transfected with 0.4 uL of Lipofectamine 2000 into peripheral blood mononuclear cells (PBMC) from three normal blood donors (D1, D2, and D3). […] The supernatant was harvested 6 hours and 18 hours after transfection and run by ELISA to determine the protein expression. The expression of G-CSF, IFN-alpha, and TNF-alpha for Donor 1 is shown in Table 86, Donor 2 is shown in Table 87 and Donor 3 is shown in Table 88.

The test system is the same in series [9]. In kind it is cell-based, human. On the procedure:
as §2

The next series relates to neutrophil count. The series can be described thus: Intravenous administration of lipoplexed G-CSF mRNA, neutrophil count. In kind it is in vivo. The settings on record: mice IV, 50 ug RNA in 10% lipoplex at days 0, 2 and 4; day 5. The method, then: Neutrophils were measured at days 1, 5 and 8. Controls included non-specific mammalian RNA or the formulation buffer alone (F.Buffer). The mice were bled at days 1, 5 and 8 to determine the effect of mRNA-encoded human G-CSF to increase neutrophil count. The dosing regimen is shown in Table 64 as are the resulting neutrophil counts (thousands/uL; K/uL).

Read-outs that look alike come from different tables or passages of the source.

As to “Factor IX: human Factor IX mRNA, SEQ ID NO: 10, polyA about 160 nt, Cap1, fully modified with 5-methylcytosine and pseudouridine”, the “concentration of Factor IX in serum” value in series [1] amounted to 1600 pg/mL. Also, the “Serum Concentration 8-12 hours after administration” value in series [2] (IM, 2 × 100 ug) is roughly 1.6 ng/mL; in series [2] (IV (LNP), 1 ug), roughly 40 ng/mL; in series [2] (IV (LNP), 10 ug), roughly 400 ng/mL; in series [2] (IV (LNP), 100 ug), ~3,000-10,000 ng/ml. Further, the “Factor IX Protein Expression, Conc” value in [2] (LNP NPA-029-1, 10 ug) was roughly 380 ng/mL; in series [2] (LNP NPA-029-1, 100 ug), 3000 to 11000 ng/mL.
As for “Factor IX Gen 1: Factor IX mRNA SEQ ID NO 10, Cap1, fully modified with 5-methylcytosine and pseudouridine”, in the series on Factor IX, the “expression of Factor IX protein” value was “able to express full-length Factor IX protein”.
With Luc, the “human EPO Average Level in serum” value stood at 0 pg/mL in [3] (IM) and 26.7 pg/mL in series [3] (SC). Moreover, the “human EPO in serum, Avg.” value in series [4] is 37.2 pg/mL; in series [5] it was 24.5 pg/mL. The “human EPO in serum, Geometric-mean” value in series [4] was 29.2 pg/mL; in [5] it was 22.4 pg/mL.

B1: Gen2 G-CSF mmRNA: human G-CSF mRNA, SEQ ID NO: 6, modified with 5-methylcytidine and N1-methylpseudouridine (nucleic acid, listed as Homo sapiens)
chain: GGGAAAUAAGAGAGAAAAGAAGAGUAAGAAGAAAUAUAAGAGCCACCAUGGCCGGUCCCGCGACCCAAAGCCCCAUGAAACUUAUGGCCCUGCAGUUGCUGCUUUGGCACUCGGCCCUCUGGACAGUCCAAGAAGCGACUCCUCUCGGACCUGCCUCAUCGUUGCCGCAGUCAUUCCUUUUGAAGUGUCUGGAGCAGGUGCGAAAGAUUCAGGGCGAUGGAGCCGCACUCCAAGAGAAGCUCUGCGCGACAUACAAACUUUGCCAUCCCGAGGAGCUCGUACUGCUCGGGCACAGCUUGGGGAUUCCCUGGGCUCCUCUCUCGUCCUGUCCGUCGCAGGCUUUGCAGUUGGCAGGGUGCCUUUCCCAGCUCCACUCCGGUUUGUUCUUGUAUCAGGGACUGCUGCAAGCCCUUGAGGGAAUCUCGCCAGAAUUGGGCCCGACGCUGGACACGUUGCAGCUCGACGUGGCGGAUUUCGCAACAACCAUCUGGCAGCAGAUGGAGGAACUGGGGAUGGCACCCGCGCUGCAGCCCACGCAGGGGGCAAUGCCGGCCUUUGCGUCCGCGUUUCAGCGCAGGGCGGGUGGAGUCCUCGUAGCGAGCCACCUUCAAUCAUUUUUGGAAGUCUCGUACCGGGUGCUGAGACAUCUUGCGCAGCCGUGAAGCGCUGCCUUCUGCGGGGCUUGCCUUCUGGCCAUGCCCUUCUUCUCUCCCUUGCACCUGUACCUCUUGGUCUUUGAAUAAAGCCUGAGUAGGAAG
modifications: 5-methylcytidine and N1-methylpseudouridine modified
As for B1, the “innate immune recognition, cytokines (IFN-alpha)” value in the series on IFN-alpha is reported as “did not significantly increase cytokines”. The “human G-CSF protein production relative to 5-methylcytosine/pseudouridine modified human G-CSF mRNA” value in [6] is “increased human G-CSF protein production”.

B2: 100% modification: G-CSF mRNA (SEQ ID NO 6, Cap1) completely modified with 5mC and pseudoU (nucleic acid, listed as Homo sapiens)
chain: GGGAAAUAAGAGAGAAAAGAAGAGUAAGAAGAAAUAUAAGAGCCACCAUGGCCGGUCCCGCGACCCAAAGCCCCAUGAAACUUAUGGCCCUGCAGUUGCUGCUUUGGCACUCGGCCCUCUGGACAGUCCAAGAAGCGACUCCUCUCGGACCUGCCUCAUCGUUGCCGCAGUCAUUCCUUUUGAAGUGUCUGGAGCAGGUGCGAAAGAUUCAGGGCGAUGGAGCCGCACUCCAAGAGAAGCUCUGCGCGACAUACAAACUUUGCCAUCCCGAGGAGCUCGUACUGCUCGGGCACAGCUUGGGGAUUCCCUGGGCUCCUCUCUCGUCCUGUCCGUCGCAGGCUUUGCAGUUGGCAGGGUGCCUUUCCCAGCUCCACUCCGGUUUGUUCUUGUAUCAGGGACUGCUGCAAGCCCUUGAGGGAAUCUCGCCAGAAUUGGGCCCGACGCUGGACACGUUGCAGCUCGACGUGGCGGAUUUCGCAACAACCAUCUGGCAGCAGAUGGAGGAACUGGGGAUGGCACCCGCGCUGCAGCCCACGCAGGGGGCAAUGCCGGCCUUUGCGUCCGCGUUUCAGCGCAGGGCGGGUGGAGUCCUCGUAGCGAGCCACCUUCAAUCAUUUUUGGAAGUCUCGUACCGGGUGCUGAGACAUCUUGCGCAGCCGUGAAGCGCUGCCUUCUGCGGGGCUUGCCUUCUGGCCAUGCCCUUCUUCUCUCCCUUGCACCUGUACCUCUUGGUCUUUGAAUAAAGCCUGAGUAGGAAG
modifications: Cap1; 5-methylcytidine, pseudouridine
On to B2, for which, in series [7], the “TNF-alpha Expression” value was 11.1 pg/mL; the “better ratio of protein/cytokine production than natural G-CSF mRNA, IFN-alpha” value is given as 100 fold; the “better ratio of protein/cytokine production than natural G-CSF mRNA, TNF-alpha” value worked out at 27 fold. The molecule also gave a G-CSF in [8] of 432 pg/mL. In [9], the IFN-alpha is 1 pg/mL.

B3: Unmodified G-CSF mRNA: human G-CSF mRNA, SEQ ID NO: 6, having no modifications (natural NTPs) (nucleic acid, listed as Homo sapiens)
chain: GGGAAAUAAGAGAGAAAAGAAGAGUAAGAAGAAAUAUAAGAGCCACCAUGGCCGGUCCCGCGACCCAAAGCCCCAUGAAACUUAUGGCCCUGCAGUUGCUGCUUUGGCACUCGGCCCUCUGGACAGUCCAAGAAGCGACUCCUCUCGGACCUGCCUCAUCGUUGCCGCAGUCAUUCCUUUUGAAGUGUCUGGAGCAGGUGCGAAAGAUUCAGGGCGAUGGAGCCGCACUCCAAGAGAAGCUCUGCGCGACAUACAAACUUUGCCAUCCCGAGGAGCUCGUACUGCUCGGGCACAGCUUGGGGAUUCCCUGGGCUCCUCUCUCGUCCUGUCCGUCGCAGGCUUUGCAGUUGGCAGGGUGCCUUUCCCAGCUCCACUCCGGUUUGUUCUUGUAUCAGGGACUGCUGCAAGCCCUUGAGGGAAUCUCGCCAGAAUUGGGCCCGACGCUGGACACGUUGCAGCUCGACGUGGCGGAUUUCGCAACAACCAUCUGGCAGCAGAUGGAGGAACUGGGGAUGGCACCCGCGCUGCAGCCCACGCAGGGGGCAAUGCCGGCCUUUGCGUCCGCGUUUCAGCGCAGGGCGGGUGGAGUCCUCGUAGCGAGCCACCUUCAAUCAUUUUUGGAAGUCUCGUACCGGGUGCUGAGACAUCUUGCGCAGCCGUGAAGCGCUGCCUUCUGCGGGGCUUGCCUUCUGGCCAUGCCCUUCUUCUCUCCCUUGCACCUGUACCUCUUGGUCUUUGAAUAAAGCCUGAGUAGGAAG
With B3, in the series with neutrophil count, the “increase in neutrophil count above control” value is on record as “no pharmacologic effect on neutrophil counts”.

Source of the values: patent publication US20200164038A1, “MODIFIED NUCLEOSIDE, NUCLEOTIDE, AND NUCLEIC ACID COMPOSITIONS” (ModernaTX, Inc., priority 2011, published 2020).
